From US20260092061A1, “COMPOUNDS FOR TARGETED PROTEIN DEGRADATION” (Amphista Therapeutics Limited, priority 2022, published 2026)

Molecular target: T1, BRD9 (Homo sapiens, UniProt Q9H8M2)
T1 sequence (Q9H8M2 1-597): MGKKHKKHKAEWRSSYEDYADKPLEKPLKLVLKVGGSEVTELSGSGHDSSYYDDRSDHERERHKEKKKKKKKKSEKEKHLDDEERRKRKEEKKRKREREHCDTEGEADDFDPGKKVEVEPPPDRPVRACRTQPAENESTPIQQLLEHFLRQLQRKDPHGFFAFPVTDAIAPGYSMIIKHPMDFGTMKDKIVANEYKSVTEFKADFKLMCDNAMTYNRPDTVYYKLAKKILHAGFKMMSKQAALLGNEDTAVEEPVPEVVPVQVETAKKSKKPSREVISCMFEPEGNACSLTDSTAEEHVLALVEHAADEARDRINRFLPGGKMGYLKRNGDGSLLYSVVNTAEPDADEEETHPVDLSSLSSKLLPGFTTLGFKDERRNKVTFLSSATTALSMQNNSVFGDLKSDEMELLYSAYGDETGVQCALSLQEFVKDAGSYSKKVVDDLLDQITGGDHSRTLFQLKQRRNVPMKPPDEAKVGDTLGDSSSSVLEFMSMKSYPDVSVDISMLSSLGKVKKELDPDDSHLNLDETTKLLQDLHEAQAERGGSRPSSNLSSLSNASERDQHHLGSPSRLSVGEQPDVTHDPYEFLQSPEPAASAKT
Assay: Degradation of BRD9 (IF), immunofluorescence in MV4-11 cells, 24 hours (Assay Protocol 2)
Type: cell-based
Design: A suspension of MV4-11 cells (ATCC CRL-9591) was prepared; host or cells: MV4-11
Conditions: BRD9 degradation; for DC50: Assay protocol 2, read-out: DC50; for Dmax: MV4-11, Assay protocol 2, read-out: Dmax
Method in brief: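 MV4-11 cells treated with compound 24 h at 37° C., then fixed, permeabilised and immunostained for BRD9 (anti-BRD9 E4Q3F, Alexa 647 secondary, Hoechst counterstain). High-content imaging quantified nuclear BRD9 signal; % BRD9 remaining normalised to DMSO and 100 nM CFT-8634 controls.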

SMILES	DC50 [nM]	Dmax [%]
COc1cc(-c2cn(C)c(=O)c(C)c2C)cc(OC)c1CN1CCN(Cc2cccc3c2CCN(C(=O)/C(C#N)=C/C(C)(C)C)[C@H]3C)[C@@H](C)C1 (single isomer, unassigned) [Compound B197]	25 to 1000	40 to 70
COc1cc(-c2cn(C)c(=O)c(C)c2C)cc(OC)c1CN1CCN(Cc2cccc3c2CCN(C(=O)/C(C#N)=C/c2cccnc2OC)C3C)CC1 (mixture of isomers) [Compound B70, (E/Z)-2-(5-((4-(2,6-dimethoxy-4-(1,4,5-trimethyl-6-oxo-1,6-dihydropyridin-3-yl)benzyl)piperazin-1-yl)methyl)-1-methyl-1,2,3,4-tetrahydroisoquinoline-2-carbonyl)-3-(2-methoxypyridin-3-yl)acrylonitrile]	–	40 to 70
COc1cc(-c2cn(C)c(=O)c(C)c2C)cc(OC)c1CN1C[C@H](C)N(Cc2cccc3c2CCN(C(=O)/C(C#N)=C/C(C)(C)C)C3C)C[C@@H]1C (mixture of isomers) [Compound B121, (E/Z)-2-(5-(((2S,5S)-4-(2,6-dimethoxy-4-(1,4,5-trimethyl-6-oxo-1,6-dihydropyridin-3-yl)benzyl)-2,5-dimethylpiperazin-1-yl)methyl)-1-methyl-1,2,3,4-tetrahydroisoquinoline-2-carbonyl)-4,4-dimethylpent-2-enenitrile]	25 to 1000	40 to 70
COc1cc(-c2cn(C)c(=O)c(C)c2C)cc(OC)c1CN1CC2CC(C1)N2Cc1ccc2c(c1)[C@@H](C)N(C(=O)/C(C#N)=C/C(C)(C)C)CC2 (single isomer, unassigned) [Compound C64, (E/Z)-2-(7-((3-(2,6-dimethoxy-4-(1,4,5-trimethyl-6-oxo-1,6-dihydropyridin-3-yl)benzyl)-3,6-diazabicyclo[3.1.1]heptan-6-yl)methyl)-1-methyl-1,2,3,4-tetrahydroisoquinoline-2-carbonyl)-4,4-dimethylpent-2-enenitrile]	25 to 1000	40 to 70
CC[C@H]1CN(Cc2cccc3c2CCN(C(=O)/C(C#N)=C/C(C)(C)C)C3C)CCN1Cc1c(OC)cc(-c2cn(C)c(=O)c(C)c2C)cc1OC (mixture of isomers) [Compound B135, (E/Z)-2-(5-(((S)-4-(2,6-dimethoxy-4-(1,4,5-trimethyl-6-oxo-1,6-dihydropyridin-3-yl)benzyl)-3-ethylpiperazin-1-yl)methyl)-1-methyl-1,2,3,4-tetrahydroisoquinoline-2-carbonyl)-4,4-dimethylpent-2-enenitrile]	1.25 to 10	> 75
COc1cc(-c2cn(C)c(=O)c(C)c2C)cc(OC)c1CN1CCN(Cc2cccc3c2CCN(C(=O)/C(C#N)=C/C(C)(C)C(F)(F)F)C3C)C2(CC2)C1 (mixture of isomers) [Compound B152, (E/Z)-2-(5-((7-(2,6-dimethoxy-4-(1,4,5-trimethyl-6-oxo-1,6-dihydropyridin-3-yl)benzyl)-4,7-diazaspiro[2.5]octan-4-yl)methyl)-1-methyl-1,2,3,4-tetrahydroisoquinoline-2-carbonyl)-5,5,5-trifluoro-4,4-dimethylpent-2-enenitrile]	1.25 to 10	> 75
COc1cc(-c2cn(C)c(=O)c(C)c2C)cc(OC)c1CN1C[C@H](C)N(Cc2cccc3c2CCN(C(=O)/C(C#N)=C/C(C)(C)C)C3C)[C@@H](C)C1 (mixture of isomers) [Compound B100, (E/Z)-2-(5-(((2S,6S)-4-(2,6-dimethoxy-4-(1,4,5-trimethyl-6-oxo-1,6-dihydropyridin-3-yl)benzyl)-2,6-dimethylpiperazin-1-yl)methyl)-1-methyl-1,2,3,4-tetrahydroisoquinoline-2-carbonyl)-4,4-dimethylpent-2-enenitrile]	25 to 1000	70 to 75
COc1cc(-c2cn(C)c(=O)c(C)c2C)cc(OC)c1CN1CCN(Cc2cccc3c2CCN(C(=O)/C(C#N)=C/C2(C)CCCCC2)C3C)C2(CC2)C1 (mixture of isomers) [Compound B143, (E/Z)-2-(5-((7-(2,6-dimethoxy-4-(1,4,5-trimethyl-6-oxo-1,6-dihydropyridin-3-yl)benzyl)-4,7-diazaspiro[2.5]octan-4-yl)methyl)-1-methyl-1,2,3,4-tetrahydroisoquinoline-2-carbonyl)-3-(1-methylcyclohexyl)acrylonitrile]	10 to 25	70 to 75
COc1cc(-c2cc(C)c(=O)n(C)c2)cc(OC)c1CN1CCN(Cc2cccc(C3CCCN3C(=O)/C(C#N)=C/C(C)(C)C)c2)CC1 (mixture of isomers) [Compound B81]	< 1.25	> 75

Other lines, results leading:

DC50 [nM]	Dmax [%]	SMILES
1.25 to 10	> 75	COc1cc(-c2cn(C)c(=O)c(C)c2C)cc(OC)c1CN1CCN(Cc2cccc3c2CCN(C(=O)/C(C#N)=C/C(C)(C)C)C3)C2(CC2)C1 [Compound C2, (E/Z)-2-(5-((7-(2,6-dimethoxy-4-(1,4,5-trimethyl-6-oxo-1,6-dihydropyridin-3-yl)benzyl)-4,7-diazaspiro[2.5]octan-4-yl)methyl)-1,2,3,4-tetrahydroisoquinoline-2-carbonyl)-4,4-dimethylpent-2-enenitrile]
< 1.25	> 75	COc1cc(-c2cn(C)c(=O)c(C)c2C)cc(OC)c1CN1CCN(Cc2cccc3c2CCN(C(=O)/C(C#N)=C/C(C)(C)C)[C@H]3C2CC2)C2(CC2)C1 (single isomer, unassigned) [Compound C99, (E/Z)-2-(1-cyclopropyl-5-((7-(2,6-dimethoxy-4-(1,4,5-trimethyl-6-oxo-1,6-dihydropyridin-3-yl)benzyl)-4,7-diazaspiro[2.5]octan-4-yl)methyl)-1,2,3,4-tetrahydroisoquinoline-2-carbonyl)-4,4-dimethylpent-2-enenitrile]
< 1.25	> 75	CC[C@@H]1c2cccc(CN3CCN(Cc4c(OC)cc(-c5cn(C)c(=O)c(C)c5C)cc4OC)C4(CC4)C3)c2CCN1C(=O)/C(C#N)=C/C(C)(C)CF (single isomer, unassigned) [Compound C105, (E/Z)-2-(5-((4-(2,6-dimethoxy-4-(1,4,5-trimethyl-6-oxo-1,6-dihydropyridin-3-yl)benzyl)-4,7-diazaspiro[2.5]octan-7-yl)methyl)-1-ethyl-1,2,3,4-tetrahydroisoquinoline-2-carbonyl)-6-fluoro-4,4-dimethylpent-2-enenitrile]
25 to 1000	40 to 70	COc1cc(-c2cn(C)c(=O)c(C)c2C)cc(OC)c1CN1CCC(Cc2ccc3c(c2)C(C)N(C(=O)/C(C#N)=C/C(C)(C)C)CC3)CC1(C)C (stereo not drawn) [Compound C53]
25 to 1000	40 to 70	COc1cc(-c2cn(C)c(=O)c(C)c2C)cc(OC)c1CN1CCN(Cc2cccc3c2CCN(C(=O)/C(C#N)=C/C(C)(C)C)[C@@H]3C(C)C)C2(CC2)C1 (single isomer, unassigned) [Compound C79, (E/Z)-2-(5-((7-(2,6-dimethoxy-4-(1,4,5-trimethyl-6-oxo-1,6-dihydropyridin-3-yl)benzyl)-4,7-diazaspiro[2.5]octan-4-yl)methyl)-1-isopropyl-1,2,3,4-tetrahydroisoquinoline-2-carbonyl)-4,4-dimethylpent-2-enenitrile]
25 to 1000	40 to 70	CCC[C@@H]1c2cccc(CN3CCN(Cc4c(OC)cc(-c5cn(C)c(=O)c(C)c5C)cc4OC)CC34CC4)c2CCN1C(=O)/C(C#N)=C/C(C)(C)C (single isomer, unassigned) [Compound C101, (E/Z)-2-(5-((7-(2,6-dimethoxy-4-(1,4,5-trimethyl-6-oxo-1,6-dihydropyridin-3-yl)benzyl)-4,7-diazaspiro[2.5]octan-4-yl)methyl)-1-propyl-1,2,3,4-tetrahydroisoquinoline-2-carbonyl)-4,4-dimethylpent-2-enenitrile]
1.25 to 10	> 75	CCCC1c2cccc(CN3CCN(Cc4c(OC)cc(-c5cn(C)c(=O)c(C)c5C)cc4OC)CC34CC4)c2CCN1C(=O)/C(C#N)=C/C(C)(C)C (mixture of isomers) [Compound C17, (E/Z)-2-(5-((7-(2,6-dimethoxy-4-(1,4,5-trimethyl-6-oxo-1,6-dihydropyridin-3-yl)benzyl)-4,7-diazaspiro[2.5]octan-4-yl)methyl)-1-propyl-1,2,3,4-tetrahydroisoquinoline-2-carbonyl)-4,4-dimethylpent-2-enenitrile]
1.25 to 10	40 to 70	COc1cc(-c2cn(C)c(=O)c(C)c2C)cc(OC)c1CN1CCCN(Cc2cccc3c2CCN(C(=O)/C(C#N)=C/C(C)(C)C)C3C(C)C)CC1 (mixture of isomers) [Compound C11, (E/Z)-2-(5-((4-(2,6-dimethoxy-4-(1,4,5-trimethyl-6-oxo-1,6-dihydropyridin-3-yl)benzyl)-1,4-diazepan-1-yl)methyl)-1-isopropyl-1,2,3,4-tetrahydroisoquinoline-2-carbonyl)-4,4-dimethylpent-2-enenitrile]
